Results published in ChEMBL document CHEMBL6178022, “Discovery and Optimization of Potent PROTAC Degraders of Phosphoinositide 3-Kinase with Significant in Vivo Anticancer Efficacy” (J Med Chem, 2025).

How the values were obtained:
[1] = tested on: T47D; assay: Antiproliferative activity against human T47D cells assessed as inhibition of cell viability incubated for 3 days by MTT/CTG assay; conditions: 72 h
[2] = tested on: MDA-MB-453; assay: Antiproliferative activity against human MDA-MB-453 cells assessed as inhibition of cell viability incubated for 3 days by MTT/CTG assay; conditions: MDA-MB-453, 72 h
[3] = tested on: HGC-27; assay: Antiproliferative activity against human HGC-27 cells assessed as inhibition of cell viability incubated for 3 days by MTT/CTG assay; conditions: HGC-27, 72 h
[4] = tested on: AGS; assay: Antiproliferative activity against human AGS cells assessed as inhibition of cell viability incubated for 3 days by MTT/CTG assay; conditions: 72 h
[5] = tested on: LNCaP; assay: Antiproliferative activity against human LNCaP cells assessed as inhibition of cell viability incubated for 3 days by MTT/CTG assay; conditions: 72 h
[6] = tested on: PC-3; assay: Antiproliferative activity against human PC-3 cells assessed as inhibition of cell viability incubated for 3 days by MTT/CTG assay; conditions: PC-3, 72 h
[7] = tested on: Pfeiffer; assay: Antiproliferative activity against human Pfeiffer cells assessed as inhibition of cell viability incubated for 3 days by MTT/CTG assay; conditions: 72 h
[8] = biological target: Phosphatidylinositol 4,5-bisphosphate 3-kinase catalytic subunit gamma isoform (Homo sapiens, UniProt P48736); assay: Inhibition of PI3K-gamma (unknown origin) by kinase selectivity profiling analysis
Phosphatidylinositol 4,5-bisphosphate 3-kinase catalytic subunit gamma isoform, sequence (P48736 whole entry, canonical isoform): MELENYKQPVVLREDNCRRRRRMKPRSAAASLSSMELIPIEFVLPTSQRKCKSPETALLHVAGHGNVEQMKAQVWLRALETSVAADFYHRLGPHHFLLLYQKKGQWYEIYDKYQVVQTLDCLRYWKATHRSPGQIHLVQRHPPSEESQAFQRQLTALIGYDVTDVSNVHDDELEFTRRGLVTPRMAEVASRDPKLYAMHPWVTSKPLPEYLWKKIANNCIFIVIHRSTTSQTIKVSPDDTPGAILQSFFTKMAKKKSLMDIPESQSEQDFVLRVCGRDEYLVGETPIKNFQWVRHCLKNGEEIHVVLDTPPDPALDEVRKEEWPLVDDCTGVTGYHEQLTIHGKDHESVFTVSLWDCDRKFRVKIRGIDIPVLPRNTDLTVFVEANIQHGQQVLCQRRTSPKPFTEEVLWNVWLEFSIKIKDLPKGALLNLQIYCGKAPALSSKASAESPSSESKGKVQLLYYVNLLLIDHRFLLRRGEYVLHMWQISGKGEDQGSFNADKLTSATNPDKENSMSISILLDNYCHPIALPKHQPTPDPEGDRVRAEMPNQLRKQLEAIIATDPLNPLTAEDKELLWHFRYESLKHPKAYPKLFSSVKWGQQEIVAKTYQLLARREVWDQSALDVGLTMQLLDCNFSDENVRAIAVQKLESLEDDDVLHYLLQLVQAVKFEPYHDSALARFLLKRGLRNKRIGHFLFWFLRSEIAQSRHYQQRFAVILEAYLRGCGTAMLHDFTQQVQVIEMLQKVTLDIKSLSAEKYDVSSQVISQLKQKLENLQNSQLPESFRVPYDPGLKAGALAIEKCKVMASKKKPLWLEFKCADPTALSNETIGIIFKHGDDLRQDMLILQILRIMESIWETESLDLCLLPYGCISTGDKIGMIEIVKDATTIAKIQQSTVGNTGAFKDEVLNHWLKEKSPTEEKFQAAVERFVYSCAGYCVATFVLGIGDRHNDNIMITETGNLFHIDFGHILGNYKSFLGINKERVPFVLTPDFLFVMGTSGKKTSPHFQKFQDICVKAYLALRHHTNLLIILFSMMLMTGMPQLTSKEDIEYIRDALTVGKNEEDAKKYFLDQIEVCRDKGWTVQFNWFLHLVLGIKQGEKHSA

[9] = tested on: T47D; assay: Effect on PI3K-alpha mRNA level in human T47D cells at 1 uM incubated for 24 hrs by RT-PCR analysis; type: functional, cell-based
[10] = tested on: T47D; assay: Induction of cell cycle arrest in human T47D cells assessed as accumulation at G2/M phase incubated for 24 hrs by PI staining based flow cytometry; type: functional; conditions: dose 0.1-10 µM
[11] = Metabolic stability in human plasma at 2 uM measured up to 60 mins by LC-MS/MS analysis; type: ADME, cell-free; conditions: 1 h
[12] = Metabolic stability in monkey plasma at 2 uM measured up to 60 mins by LC-MS/MS analysis; type: ADME, cell-free, Macaca mulatta; conditions: rhesus monkey, 1 h
[13] = Metabolic stability in dog plasma at 2 uM measured up to 60 mins by LC-MS/MS analysis; type: ADME, cell-free, Canis lupus familiaris; conditions: 1 h
[14] = Metabolic stability in rat plasma at 2 uM measured up to 60 mins by LC-MS/MS analysis; type: ADME, cell-free; conditions: 1 h
[15] = Metabolic stability in mouse plasma at 2 uM measured up to 60 mins by LC-MS/MS analysis; type: ADME, cell-free; conditions: 1 h
[16] = Metabolic stability in human liver microsomes assessed as half life at 2 uM measured up to 60 mins by LC-MS/MS analysis; type: ADME, Microsome
[17] = Metabolic stability in monkey liver microsomes assessed as half life at 2 uM measured up to 60 mins by LC-MS/MS analysis; type: ADME, Macaca mulatta, Microsome; conditions: rhesus monkey
[18] = Metabolic stability in dog liver microsomes assessed as half life at 2 uM measured up to 60 mins by LC-MS/MS analysis; type: ADME, Canis lupus familiaris, Microsome
[19] = Metabolic stability in rat liver microsomes assessed as half life at 2 uM measured up to 60 mins by LC-MS/MS analysis; type: ADME, Microsome
[20] = Metabolic stability in mouse liver microsomes assessed as half life at 2 uM measured up to 60 mins by LC-MS/MS analysis; type: ADME, Microsome
[21] = Drug metabolism in human liver microsomes at 2 uM measured up to 60 mins in absence of NADPH by LC-MS/MS analysis; type: ADME, Microsome; conditions: 1 h
[22] = Drug metabolism in monkey liver microsomes at 2 uM measured up to 60 mins in absence of NADPH by LC-MS/MS analysis; type: ADME, Macaca mulatta, Microsome; conditions: rhesus monkey, 1 h
[23] = Drug metabolism in dog liver microsomes at 2 uM measured up to 60 mins in absence of NADPH by LC-MS/MS analysis; type: ADME, Canis lupus familiaris, Microsome; conditions: 1 h
[24] = Drug metabolism in rat liver microsomes at 2 uM measured up to 60 mins in absence of NADPH by LC-MS/MS analysis; type: ADME, Microsome; conditions: 1 h
[25] = Drug metabolism in mouse liver microsomes at 2 uM measured up to 60 mins in absence of NADPH by LC-MS/MS analysis; type: ADME, Microsome; conditions: 1 h
[26] = Terminal half life in ICR mouse at 3 mg/kg, iv measured for 24 hrs by LC-MS/MS analysis; type: ADME, organism-based; conditions: in vivo, read-out: beta t1/2 (converted)
[27] = MRT (0 to t) in ICR mouse at 3 mg/kg, iv measured for 24 hrs by LC-MS/MS analysis; type: ADME, organism-based; conditions: in vivo
[28] = AUC (0 to t) in ICR mouse at 3 mg/kg, iv measured for 24 hrs by LC-MS/MS analysis; type: ADME, organism-based; conditions: in vivo
[29] = Cmax in ICR mouse at 30 mg/kg, ip measured for 24 hrs by LC-MS/MS analysis; type: ADME, organism-based; conditions: in vivo
[30] = Terminal half life in ICR mouse at 30 mg/kg, ip measured for 24 hrs by LC-MS/MS analysis; type: ADME, organism-based; conditions: in vivo, read-out: beta t1/2
[31] = MRT (0 to t) in ICR mouse at 30 mg/kg, ip measured for 24 hrs by LC-MS/MS analysis; type: ADME, organism-based; conditions: in vivo
[32] = AUC (0 to t) in ICR mouse at 30 mg/kg, ip measured for 24 hrs by LC-MS/MS analysis; type: ADME, organism-based; conditions: in vivo
[33] = Oral bioavailability in ICR mouse at 30 mg/kg measured for 24 hrs by LC-MS/MS analysis; type: ADME, organism-based; conditions: in vivo
[34] = Terminal half life in Sprague-Dawley rat at 1.5 mg/kg, iv measured for 24 hrs by LC-MS/MS analysis; type: ADME, organism-based; conditions: in vivo, read-out: beta t1/2 (converted)
[35] = MRT (0 to t) in Sprague-Dawley rat at 1.5 mg/kg, iv measured for 24 hrs by LC-MS/MS analysis; type: ADME, organism-based; conditions: in vivo
[36] = AUC (0 to t) in Sprague-Dawley rat at 1.5 mg/kg, iv measured for 24 hrs by LC-MS/MS analysis; type: ADME, organism-based; conditions: in vivo
[37] = Cmax in Sprague-Dawley rat at 15 mg/kg, ip measured for 24 hrs by LC-MS/MS analysis; type: ADME, organism-based; conditions: in vivo
[38] = Terminal half life in Sprague-Dawley rat at 15 mg/kg, ip measured for 24 hrs by LC-MS/MS analysis; type: ADME, organism-based; conditions: in vivo, read-out: beta t1/2 (converted)
[39] = MRT (0 to t) in Sprague-Dawley rat at 15 mg/kg, ip measured for 24 hrs by LC-MS/MS analysis; type: ADME, organism-based; conditions: in vivo
[40] = AUC (0 to t) in Sprague-Dawley rat at 15 mg/kg, ip measured for 24 hrs by LC-MS/MS analysis; type: ADME, organism-based; conditions: in vivo
[41] = Oral bioavailability in Sprague-Dawley rat at 15 mg/kg measured for 24 hrs by LC-MS/MS analysis; type: ADME, organism-based; conditions: in vivo
[42] = tested on: HGC-27; assay: Antitumor activity against human HGC-27 cells xenografted in male BALB/c nude mouse model at 30 mg/kg, ip qd treated for 14 days consecutively relative to control; type: functional; conditions: HGC-27, 336 h, time 14 day, read-out: TGI
[43] = tested on: HGC-27; assay: Antitumor activity against human HGC-27 cells xenografted in male BALB/c nude mouse model at 60 mg/kg, ip qd treated for 14 days consecutively relative to control; type: functional; conditions: HGC-27, 336 h, time 14 day, read-out: TGI
[44] = Toxicity in male BALB/c nude mouse model xenografted with human HGC-27 cells assessed as drug tolerance at 30 to 60 mg/kg, ip qd treated for 14 days consecutively; type: organism-based; conditions: in vivo, 336 h, dose 30-60 mg/kg, time 14 day
[45] = Toxicity in male BALB/c nude mouse model xenografted with human HGC-27 cells assessed as body weight change at 30 to 60 mg/kg, ip qd treated for 14 days consecutively; type: organism-based; conditions: in vivo, 336 h, dose 30-60 mg/kg, time 14 day
[46] = tested on: Mus musculus; assay: In vivo PROTAC activity at CRBN/PI3K-alpha in human HGC-27 cells xenografted in male BALB/c nude mouse model assessed as PI3K-alpha degradation administered intraperitoneally once daily for 14 days consecutively; type: functional, organism-based; conditions: dose 30-60 mg/kg, route ip, time 14.0 day
[47] = tested on: DOHH-2; assay: Antitumor activity against human DOHH-2 cells xenografted in male BALB/c nude mouse model at 30 mg/kg, ip qd treated for 21 days consecutively relative to control; type: functional; conditions: DOHH-2, 504 h, time 21 day, read-out: TGI
[48] = Toxicity in male BALB/c nude mouse model xenografted with human DOHH-2 cells assessed as drug tolerance at 30 mg/kg, ip qd treated for 21 days consecutively; type: organism-based; conditions: in vivo, 504 h, time 21 day
[49] = Toxicity in male BALB/c nude mouse model xenografted with human DOHH-2 cells assessed as body weight loss at 30 mg/kg, ip qd treated for 21 days consecutively; type: organism-based; conditions: in vivo, 504 h, time 21 day
[50] = biological target: Voltage-gated inwardly rectifying potassium channel KCNH2 (Homo sapiens, UniProt Q12809); assay: Inhibition of hERG stably expressed in HEK293 cells by whole-cell patch-clamp technique; type: toxicity, cell-based
Voltage-gated inwardly rectifying potassium channel KCNH2, sequence (Q12809 whole entry): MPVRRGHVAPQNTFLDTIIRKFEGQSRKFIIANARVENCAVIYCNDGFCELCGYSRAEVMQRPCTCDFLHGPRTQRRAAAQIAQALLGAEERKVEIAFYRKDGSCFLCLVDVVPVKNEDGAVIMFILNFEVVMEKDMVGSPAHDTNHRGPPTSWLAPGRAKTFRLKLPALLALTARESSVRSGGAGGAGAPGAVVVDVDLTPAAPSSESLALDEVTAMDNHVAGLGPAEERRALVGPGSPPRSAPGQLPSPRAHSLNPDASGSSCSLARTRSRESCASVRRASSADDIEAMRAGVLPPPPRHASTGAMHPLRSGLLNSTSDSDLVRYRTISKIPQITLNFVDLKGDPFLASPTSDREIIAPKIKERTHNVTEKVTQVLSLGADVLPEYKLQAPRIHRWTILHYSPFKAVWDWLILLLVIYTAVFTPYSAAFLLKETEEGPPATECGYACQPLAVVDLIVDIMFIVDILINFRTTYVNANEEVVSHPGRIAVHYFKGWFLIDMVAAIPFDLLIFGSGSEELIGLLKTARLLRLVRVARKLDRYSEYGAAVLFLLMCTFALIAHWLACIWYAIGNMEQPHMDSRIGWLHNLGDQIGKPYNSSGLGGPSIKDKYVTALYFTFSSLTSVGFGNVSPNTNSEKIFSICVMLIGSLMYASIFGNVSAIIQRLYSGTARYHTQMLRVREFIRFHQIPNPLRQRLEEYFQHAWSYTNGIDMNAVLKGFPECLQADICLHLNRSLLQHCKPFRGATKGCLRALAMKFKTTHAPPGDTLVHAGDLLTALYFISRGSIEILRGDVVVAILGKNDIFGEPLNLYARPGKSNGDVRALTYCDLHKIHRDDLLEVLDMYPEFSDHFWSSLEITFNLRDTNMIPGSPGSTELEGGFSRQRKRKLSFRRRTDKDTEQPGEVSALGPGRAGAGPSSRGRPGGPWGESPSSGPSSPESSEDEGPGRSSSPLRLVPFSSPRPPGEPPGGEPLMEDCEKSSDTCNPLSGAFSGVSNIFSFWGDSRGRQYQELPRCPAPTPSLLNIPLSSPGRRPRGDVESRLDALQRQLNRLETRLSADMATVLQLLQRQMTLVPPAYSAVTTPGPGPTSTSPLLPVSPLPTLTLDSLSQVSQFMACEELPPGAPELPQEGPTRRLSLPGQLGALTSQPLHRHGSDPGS

[51] = Cytotoxicity against human AC16 [Human hybrid] cells; type: toxicity, cell-based
[52] = Toxicity in C57BL/6J mouse administered intraperitoneally for 7 days; conditions: in vivo, route ip, time 7 day
[53] = Toxicity in C57BL/6J mouse assessed as body weight change at 100 mg/kg, ip treated daily for 7 days; type: organism-based; conditions: in vivo, 168 h, time 7 day
[54] = biological target: hERG (KCNH2) (Homo sapiens, UniProt Q12809); assay: Inhibition of hERG stably expressed in HEK293 cells at 10 uM by whole-cell patch-clamp technique relative to control; type: toxicity, cell-based; conditions: HEK293 cells stably expressing hERG
hERG (KCNH2), sequence (Q12809 whole entry): as above

## Cc1nc(NC(=O)N2CCC[C@H]2C(N)=O)sc1-c1ccnc(C(C)(C)C(F)(F)F)c1 [ALPELISIB]
[1]
  IC50: 360 nM
[2]
  IC50: 770 nM
[3]
  IC50: 1920 nM
[4]
  IC50: 520 nM
[5]
  IC50: 15800 nM
[6]
  IC50: 13200 nM
[7]
  IC50: > 50000 nM

## COc1ncc(-c2cc(OCCCCCCCCCCCCNc3cccc4c3C(=O)N(C3CCC(=O)NC3=O)C4=O)c3ncnc(C)c3c2)cc1NS(=O)(=O)c1ccc(F)cc1F (stereo unspecified)
[8]
  IC50: > 10000 nM
[1]
  IC50: 350 nM
[2]
  IC50: 1640 nM
[3]
  IC50: 1450 nM
[4]
  IC50: 370 nM
[5]
  IC50: 3380 nM
[6]
  IC50: 1480 nM
[7]
  IC50: 690 nM
[9]
  Activity: No effect
[10]
  Activity: Dose-dependent-effect
[11]
  Stability: Stable
[12]
  Stability: Stable
[13]
  Stability: Stable
[14]
  Stability: Stable
[15]
  Stability: Stable
[16]
  half-life at 2 µM: 0.578 h
[17]
  half-life at 2 µM: 0.542 h
[18]
  half-life at 2 µM: 1.12 h
[19]
  half-life at 2 µM: 0.762 h
[20]
  half-life at 2 µM: 0.377 h
[21]
  Drug metabolism: metabolite_notdetected
[22]
  Drug metabolism: metabolite_notdetected
[23]
  Drug metabolism: metabolite_notdetected
[24]
  Drug metabolism: metabolite_notdetected
[25]
  Drug metabolism: metabolite_notdetected
[26]
  half-life: 7.88 h
[27]
  MRT last at 24 h: 6.69 h
[28]
  AUC(0-t) at 24 h: 12700 ng·h/mL
[29]
  Cmax: 1420 ng/mL
[30]
  half-life: > 24 h
[31]
  MRT last at 24 h: 10.7 h
[32]
  AUC(0-t) at 24 h: 26300 ng·h/mL
[33]
  bioavailability: 20%
[34]
  half-life: 2.11 h
[35]
  MRT last at 24 h: 1.98 h
[36]
  AUC(0-t) at 24 h: 1120 ng·h/mL
[37]
  Cmax: 555 ng/mL
[38]
  half-life: 4.28 h
[39]
  MRT last at 24 h: 6.05 h
[40]
  AUC(0-t) at 24 h: 5490 ng·h/mL
[41]
  bioavailability: 46.4%
[42]
  inhibition in vivo at 30 mg/kg: 38.3%
[43]
  inhibition in vivo at 60 mg/kg: 56.8%
[44]
  Activity: Non-toxic
[45]
  Activity: Non-toxic
[46]
  Activity: Dose-dependent-effect
[47]
  inhibition in vivo at 30 mg/kg: 61.8%
[48]
  Activity: Non-toxic
[49]
  Activity: Non-toxic
[50]
  IC50: > 10000 nM
[51]
  IC50: > 50000 nM
[52]
  MTD at 168 h: > 100 mg/kg
[53]
  Activity: Non-toxic
[54]
  inhibition at 10 µM: 10.2%
